Consider two molecules from patent US11702402B2, “Small molecules that block proteasome-associated ubiquitin receptor RPN13 function and uses thereof” (DANA-FARBER CANCER INSTITUTE, INC., priority 2018, dated 2023).

Data set [1] concerns MM.1S Len-resistant cells. The data set can be described thus: MM.1S lenalidomide-resistant cell viability. It counts as cell-based, Human. To be noted: 72 hours. An excerpt:
The experiment was repeated twice and JQRA concentration was increased (as indicated) at the second time.

The subject of the next data set is MM.1S cells. Kind of data set: Annexin V/PI apoptosis assay in MM.1S cells. Format: cell-based, Human. To be noted: 200 nM, 16 hours. The protocol: FIGS. 22A to 22F show the mechanisms of WL40-induced MM cell death. […] MM.1S cells were treated with DMSO control or WL40 (200 nM) for 16 hours, and then analyzed for apoptosis using Annexin V/PI double staining assay (mean±SD; n=3; p<0.001). FIG. 22B is an immunoblot of MM.1S and ANBL6.BR cells, which were treated with DMSO control or WL40 (200 nM for MM.1S; 1 μM for ANBL6.BR) for 16 hours; protein lysates were then subjected to the immunoblotting using antibodies against poly ADP ribose polymerase (PARP), caspase-3, caspase-7, caspase-8, caspase-9, or β-actin. FL, full length; CF, cleaved fragment. FIG. 22C is a bar graph measuring enzymatic activity. MM.1S cells were treated with DMSO control or WL40 (200 nM) for 12 hours, followed by the measurement of caspase-3, caspase-8, or caspase-9 enzymatic activity (mean±SD; n=3; p<0.0001). FIG. 22D is an immunoblot of MM.1S and ANBL6.BR cells, which were treated with DMSO control or WL40 (200 nM for MM.1S; 1 μM for ANBL6.BR) for 16 hours; protein lysates were then subjected to the immunoblotting using specific antibodies against Cyclin-B1, Cell Division Cycle 25C (CDC25C), Cell Division Cycle 2 (CDCl2), or β-actin. […]

In the next data set the test system is RPMI-8226 cells. The data set can be described thus: RPMI-8226 cell viability. It counts as cell-based, Human. To be noted: p53-mutated RPMI-8226; 48 hours. An excerpt: (§1) The IC50 of WL40 for cell lines is shown.
For another data set, the system named is CD138+ patient MM cells. Kind of data set: Viability of CD138+ patient MM cells (CellTiter-Glo). To be noted: Homo sapiens, CD138+ patient MM cells (patients 1-4), 48 hours, read-out: cell viability IC50 range. Format: cell-based. The protocol: as §1
Human MM cell lines MM.1S, MM.1R, RPMI-8226, ANBL6.WT, ANBL6.BR, DOX40, INA6, and normal PBMCs were cultured in RPMI1640 complete medium. Informed consent was obtained from ah patients in accordance with the Helsinki protocol. MM CD138-positive cells, bone marrow stromal cells (BMSCs), and plasmacytoid dendritic cells (pDCs) from MM patients were isolated and cultured as described previously.^32
A general note: Cellular ATP, detected with luciferase, serves as a proxy for viable cell number.

Turning to `Cl.N[C@@H](Cc1ccccc1)C(=O)N1C/C(=C/c2ccc(Cl)c(Cl)c2)C(=O)/C(=C\c2ccc(Cl)c(Cl)c2)C1` [RA190, reference compound], the “cytotoxicity (percentage of viable cells)” value in data set [1] is given as “more robust MM cytotoxicity”.

The term IC50 denotes the midpoint of a concentration-inhibition curve. On to `O=C1CCC(N2C(=O)c3cccc(NCCOCCOCCOCCC(=O)N[C@@H](Cc4ccccc4)C(=O)N4C/C(=C\c5ccc(Cl)c(Cl)c5)C(=O)/C(=C/c5ccc(Cl)c(Cl)c5)C4)c3C2=O)C(=O)N1` (stereo partly shown) [WL40], for which the “apoptosis (Annexin V/PI)” value with MM.1S cells is “increase in early- (Annexin V^+/PI^−) and late-stage (Annexin V^+/PI^+) apoptosis”. The “cytotoxic activity (cell viability)” value with RPMI-8226 cells is given as “cytotoxic activity”. In addition, the IC50 with CD138+ patient MM cells lay within 0.095 to 0.17 µM.
